Some results are limits rather than exact numbers.

The IC50 is the concentration at which inhibition is half-maximal.

Chain of PI3Kδ (p110δ/p85α) (O00329 whole entry): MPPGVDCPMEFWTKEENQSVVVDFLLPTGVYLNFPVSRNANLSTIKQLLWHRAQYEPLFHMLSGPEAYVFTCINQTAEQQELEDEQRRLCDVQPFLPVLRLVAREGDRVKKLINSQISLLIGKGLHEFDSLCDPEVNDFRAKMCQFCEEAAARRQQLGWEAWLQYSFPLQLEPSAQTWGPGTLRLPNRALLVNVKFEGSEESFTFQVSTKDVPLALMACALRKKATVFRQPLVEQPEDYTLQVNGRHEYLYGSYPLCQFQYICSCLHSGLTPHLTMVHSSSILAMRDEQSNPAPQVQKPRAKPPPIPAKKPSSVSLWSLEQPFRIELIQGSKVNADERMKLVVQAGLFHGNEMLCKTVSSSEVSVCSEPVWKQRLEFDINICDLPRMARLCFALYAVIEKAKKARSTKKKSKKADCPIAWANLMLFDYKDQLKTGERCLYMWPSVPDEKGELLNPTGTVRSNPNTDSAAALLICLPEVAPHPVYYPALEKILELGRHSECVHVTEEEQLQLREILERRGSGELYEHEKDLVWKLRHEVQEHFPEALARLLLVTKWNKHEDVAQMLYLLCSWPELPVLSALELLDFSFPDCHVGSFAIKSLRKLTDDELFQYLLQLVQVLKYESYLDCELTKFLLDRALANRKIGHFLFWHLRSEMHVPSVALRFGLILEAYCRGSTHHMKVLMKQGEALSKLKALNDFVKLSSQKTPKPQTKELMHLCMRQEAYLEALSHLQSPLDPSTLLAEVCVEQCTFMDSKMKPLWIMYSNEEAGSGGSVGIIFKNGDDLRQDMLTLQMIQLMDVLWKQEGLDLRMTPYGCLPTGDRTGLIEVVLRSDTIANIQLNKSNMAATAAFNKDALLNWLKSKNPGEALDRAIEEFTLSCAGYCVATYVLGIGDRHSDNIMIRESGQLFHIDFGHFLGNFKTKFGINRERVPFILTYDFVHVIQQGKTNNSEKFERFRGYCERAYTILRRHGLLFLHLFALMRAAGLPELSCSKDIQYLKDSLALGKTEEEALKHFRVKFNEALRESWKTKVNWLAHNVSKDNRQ
Chain of PI3Kδ (p110δ/p85α) (P27986 whole entry partner): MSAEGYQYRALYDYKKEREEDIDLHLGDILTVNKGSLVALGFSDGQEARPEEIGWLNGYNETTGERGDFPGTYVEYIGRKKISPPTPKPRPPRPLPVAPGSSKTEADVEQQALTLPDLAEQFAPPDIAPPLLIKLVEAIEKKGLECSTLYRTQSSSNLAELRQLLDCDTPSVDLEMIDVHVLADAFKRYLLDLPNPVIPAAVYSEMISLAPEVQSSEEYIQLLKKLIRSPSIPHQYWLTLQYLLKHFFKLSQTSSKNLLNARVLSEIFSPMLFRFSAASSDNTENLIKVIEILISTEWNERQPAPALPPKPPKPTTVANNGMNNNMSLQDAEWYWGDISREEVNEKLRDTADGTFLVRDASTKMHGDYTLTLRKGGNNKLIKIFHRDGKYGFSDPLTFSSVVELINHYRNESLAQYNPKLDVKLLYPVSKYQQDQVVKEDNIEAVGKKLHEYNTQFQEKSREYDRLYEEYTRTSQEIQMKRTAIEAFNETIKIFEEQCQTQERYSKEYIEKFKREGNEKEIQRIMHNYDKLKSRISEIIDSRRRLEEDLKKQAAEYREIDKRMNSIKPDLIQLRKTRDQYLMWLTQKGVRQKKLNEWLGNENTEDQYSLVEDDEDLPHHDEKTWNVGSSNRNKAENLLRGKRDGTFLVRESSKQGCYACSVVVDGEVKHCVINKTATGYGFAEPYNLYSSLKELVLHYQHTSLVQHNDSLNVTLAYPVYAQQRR

This experiment concerns the target PI3Kδ (p110δ/p85α) (Homo sapiens (Human), UniProt O00329). Put plainly: PI3Kδ scintillation proximity assay (Example A3). It is filed as biochemical. Conditions: 20 μM ATP, 20 μM PIP2, 4 nM PI3Kδ; read-out: PI3Kδ SPA IC50. The method, boiled down:
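IC50 derived by fitting percent control activity against log inhibitor concentration. Radiolabelled product was measured by scintillation counting on WGA SPA beads after overnight shaking. The kinase reaction used 4 nM p110δ/p85α, 20 μM ATP (with [γ-33P]ATP) and 20 μM PIP2 at pH 6.7 and room temperature, with 0.5% DMSO final.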
In general terms: SPA uses beads or plates that emit light when radiolabelled molecules are held near them.
For the compound `COc1c(C(C)n2nc(C)c3c(N)ncnc32)cc(Cl)c(C#N)c1C1CN(C(=O)C2CC2)C1` (single isomer, unassigned) [Example 284, 4-[1-(4-Amino-3-methyl-1H-pyrazolo[3,4-d]pyrimidin-1-yl)ethyl]-6-chloro-2-[1-(cyclopropylcarbonyl)azetidin-3-yl]-3-methoxybenzonitrile], the IC50 is no more than 10 nM.
Turning to `CCS(=O)(=O)N1CC(c2c(C#N)c(Cl)cc(C(C)n3nc(C)c4c(N)ncnc43)c2OC)C1` (single isomer, unassigned) [Example 286, 4-[1-(4-Amino-3-methyl-1H-pyrazolo[3,4-d]pyrimidin-1-yl)ethyl]-6-chloro-2-[1-(ethylsulfonyl)azetidin-3-yl]-3-methoxybenzonitrile], the IC50 is no more than 10 nM.
Consider `COc1c(C(C)n2nc(C)c3c(N)ncnc32)cc(Cl)c(C#N)c1C1CN(S(=O)(=O)C2CC2)C1` (single isomer, unassigned) [Example 288, 4-[1-(4-Amino-3-methyl-1H-pyrazolo[3,4-d]pyrimidin-1-yl)ethyl]-6-chloro-2-[1-(cyclopropylsulfonyl)azetidin-3-yl]-3-methoxybenzonitrile], for which the half-maximal inhibitory concentration (IC50) is no more than 10 nM.
Under `CCOC(=O)N1CC(c2c(C#N)c(Cl)cc(C(C)n3nc(C)c4c(N)ncnc43)c2OC)C1` (single isomer, unassigned) [Example 290, Ethyl 3-{3-[1-(4-amino-3-methyl-1H-pyrazolo[3,4-d]pyrimidin-1-yl)ethyl]-5-chloro-6-cyano-2-methoxyphenyl}azetidine-1-carboxylate] stands no more than 10 nM.
For the compound `COc1c(C(C)n2nc(C)c3c(N)ncnc32)cc(Cl)c(C#N)c1C1CN(C(=O)OC(C)C)C1` (single isomer, unassigned) [Example 291, Isopropyl 3-{3-[1-(4-amino-3-methyl-1H-pyrazolo[3,4-d]pyrimidin-1-yl)ethyl]-5-chloro-6-cyano-2-methoxyphenyl}azetidine-1-carboxylate], the IC50 was no more than 10 nM.
For the compound `CCNC(=O)N1CC(c2c(C#N)c(Cl)cc(C(C)n3nc(C)c4c(N)ncnc43)c2OC)C1` (single isomer, unassigned) [Example 295, 3-{3-[1-(4-Amino-3-methyl-1H-pyrazolo[3,4-d]pyrimidin-1-yl)ethyl]-5-chloro-6-cyano-2-methoxyphenyl}-N-ethylazetidine-1-carboxamide], the IC50 was no more than 10 nM.
For `CCN1CC(c2c(Cl)c(Cl)cc(C(C)n3nc(C)c4c(N)ncnc43)c2OC)C1` (single isomer, unassigned) [Example 298, 1-{1-[4,5-Dichloro-3-(1-ethylazetidin-3-yl)-2-methoxyphenyl]ethyl}-3-methyl-1H-pyrazolo[3,4-d]pyrimidin-4-amine], the IC50 was no more than 10 nM.
Under `COc1c(C(C)n2nc(C)c3c(N)ncnc32)cc(Cl)c(Cl)c1C1CN(C(C)C)C1` (single isomer, unassigned) [Example 299, 1-{1-[4,5-Dichloro-3-(1-isopropylazetidin-3-yl)-2-methoxyphenyl]ethyl}-3-methyl-1H-pyrazolo[3,4-d]pyrimidin-4-amine] stands no more than 10 nM.
Consider `COc1c(C(C)n2nc(C)c3c(N)ncnc32)cc(Cl)c(Cl)c1C1CN(CCO)C1` (single isomer, unassigned) [Example 300, 2-(3-{3-[1-(4-Amino-3-methyl-1H-pyrazolo[3,4-d]pyrimidin-1-yl)ethyl]-5,6-dichloro-2-methoxyphenyl}azetidin-1-yl)ethano], for which the IC50 was no more than 10 nM.
Under `COc1c(C(C)n2nc(C)c3c(N)ncnc32)cc(Cl)c(Cl)c1C1CN(CC(C)(C)O)C1` (single isomer, unassigned) [Example 303, 1-(3-{3-[1-(4-Amino-3-methyl-1H-pyrazolo[3,4-d]pyrimidin-1-yl)ethyl]-5,6-dichloro-2-methoxyphenyl}azetidin-1-yl)-2-methylpropan-2-ol] stands no more than 10 nM.

These data come from patent publication US9707233B2, “Heterocyclylamines as PI3K inhibitors” (Incyte Corporation, priority 2011, dated 2017).
